Results taken from publication PMC10360056, “Chemical Evolution of Amphiphilic Xenopeptides for Potentiated Cas9 Ribonucleoprotein Delivery” (Journal of the American Chemical Society, 2023).

Legend:
[1] = LogD7.4 determination of xenopeptides (octanol-water); type: physicochemical; conditions: shake-flask n-octanol/HEPES buffer (20 mM, pH 7.4); 10 μL of 10 mg/mL xenopeptide in water + 90 μL buffer + 100 μL n-octanol; shaken 1400 rpm 24 h; centrifuged, 4 °C 1 h; HPLC, extinction 280 nm; log(Aoctanol/Awater); triplicate
Protocol: LogD7.4 determination of xenopeptides
Octanol-water partition coefficient D at pH 7.4 (logD7.4) was determined as previously reported with slight modification.5
Scheme S3 illustrates the logD7.4 determination procedures of all xenopeptides in this study. Briefly, 10 μL of 10 mg/mL xenopeptides in water were diluted with 90 μL HEPES buffer (20 mM, pH 7.4) in 1.5 mL reaction tubes. 100 μL n-octanol were then added. The tubes were shaken at 1400 rpm for 24 h. Afterwards, the tubes were centrifuged followed by storage at 4 °C for 1 h to separate n-octanol and water phases. 70 μL of each phase were injected for HPLC analysis. The extinction at 280 nm was monitored and the peak area (A) of the xenopeptides was calculated. LogD7.4 was calculated as log(Aoctanol / Awater).
All experiments were performed in triplicate. […]
Cas9 RNP/ssDNA nanocarriers. […]

[2] = Characterization of Cas9 RNP nanocarriers by DLS (size, PDI, zeta potential); type: physicochemical; conditions: N/P ratio 24, RNP 75 nM, three technical replicates; for PDI of Cas9 RNP nanocarriers / hydrodynamic size (z-average) of Cas9 RNP nanocarriers: DLS, HBG pH 7.4, mean ± SD; for zeta potential of Cas9 RNP nanocarriers: electrophoretic light scattering, HEPES 20 mM pH 7.4, mean ± SD
Protocol: Preparation of Cas9 RNP and Cas9 RNP/ssDNA nanocarriers
Cas9 protein was expressed, purified, and stored at -80 °C in storage buffer (20 mM HEPES, 200 mM KCl, 10 mM MgCl 2, 1 mM DTT, 30 % glycerol) as described previously.6 Cas9 protein and sgRNA (dissolved in RNase-free water) were mixed at 1:1 molar ratio and incubated at RT for 15 min to form the Cas9/sgRNA ribonucleoprotein (RNP) complexes. Afterwards, Cas9 RNP was added into the xenopeptide solution in HBG buffer (pH 7.4) at an N/P (nitrogen t o phosphate of sgRNA) ratio of 24. The solution was mixed thoroughly by pipetting up and down and incubated at RT for another 15 min to generate the final Cas9 RNP nanocarriers. In case of preparing Cas9 RNP/ssDNA nanocarriers for HDR experiments, Cas9 RNP was mixed with ssDNA HDR template at 1:1 molar ratio and then added into the xenopeptide solution in HBG buffer (pH 7.4) at an N/P (nitrogen to phosphate of sgRNA plus ssDNA) ratio of 12. The solution was mixed and incubated for 40 min to generate the Cas9 RNP/ssDNA nanocarriers.
Characterization of Cas9 RNP nanocarriers
The hydrodynamic size, PDI and zeta potential of Cas9 RNP nanocarriers were measured by DLS using a Zetasizer Nano ZS (Malvern Instruments, UK). Cas9 RNP nanocarriers were prepared as desc ribed above. The hydrodynamic size of Cas9 RNP nanocarriers containing 1.25 μg Cas9 protein and 0.25 μg sgRNA (Cas9/sgRNA, 1:1 molar ratio) in 100 μL HBG was measured.
Afterwards, 700 μL HEPES buffer (20 mM, pH 7.4) were added to each sample and the soluti on was mixed for the zeta potential measurement. For the dilution stability study, Cas9 RNP nanocarriers were prepared at an RNP concentration of 375 nM (6.25 μg Cas9 protein and 1.25 μg sgRNA) and then diluted with HBG buffer to a series of RNP concentrat ions (75, 50, 25, 10, 5, 2.5, 1, 0.5, and 0.1 nM). The size and zeta potential of diluted samples were measured as described above.

HeLa eGFP/tub cells = test: eGFP knockout study by Cas9 RNP nanocarriers, flow cytometry; type: cell-based; conditions: 1 nM RNP, 48 h treatment, N/P 24
Protocol: HeLa WT, HeLa eGFP/tub, HeLa GFPd2 (destabilized eGFP), CT26 eGFP/luc and N2a eGFP/luc cells were grown in DMEM medium supplemented with 10 % FBS, 100 U/mL penicillin, and 100 μg/mL streptomycin. The cells were cultured in ventilated flasks in the cell incubator at 37 °C and 5 % CO2 in a humidified atmosphere. The cells were passaged at a confluency of […]
Cells were harvested and resuspended in 600 μL of FACS buffer (PBS buffer containing 10 % FBS). The samples were ana-lyzed by flow cytometry on a CytoFLEX S flow cytometer (Beckman Coulter, CA, USA). For eGFP knockout and cellular uptake experiments, 0.6 μL of 1 μg/μL DAPI was added to each sample for differentiating live and dead cells before the measurement. The DAPI signal and BFP fluorescence were detected with 405 nm excitation and 450 nm emission. The eGFP and ATTO488 fluorescence was assayed with 488 nm excitation and 530 nm emission. The ATTO647N fluorescence was assayed with 640 nm excitation and 670 nm emission. Ten thousand of isolated live cells were counted and evaluated. The data were analyzed using FlowJo 7.6.5 by FlowJo, LLC (Becton, Dickinson and Company, USA). […]
Endosomal escape of Cas9 RNP nanocarriers […]
Next, the […]
cells were washed twice with PBS and then fixed with 4 % PFA at RT for 40 min. Afterwards, the cells were washed and incubated with 2 µg/mL DAPI (for staining cell nuclei) for 30 min. Then, the staining solution was removed and 300 μL fresh PBS were added. The slides w ere stored at 4 °C in the dark until the measurement. […]
Then, the image was conv erted into 8-bit type. The mRuby3/gal8 spots were further determined by Threshold tool, and the number of the spots in the cell cytosol per cell were counted by Analyze Particles tool.
One day prior to the treatments, HeLa eGFP/tub cell s were seeded into 96 -well plates at a density of 5000 cells/well. On the next day, the medium was replaced with 80 μL of fresh medium. 20 μL of Cas9 RNP nanocarriers were added to each well resulting in a series of concentrations of RNP (100, 75, 50, 25, 10, 5, 2.5, 1, 0.5, and 0.1 nM). Lipofectamine CRISPRMAX was tested at the same concentrations of RNP with the preparation procedures as recommended by the manufacturer. The cells were incubated for 48 h. Afterwards, the cells were trypsinized and transfer red to 24-well plates, and incubated for another 72 h. Then, the cells were harvested and prepared for flow cytometry analysis. All experiments were performed in triplicate. eGFP to BFP conversion (HDR) study
One day prior to the treatments, HeLa GFPd2 cel ls were seeded into 96 -well plates at a density of 5000 cells/well. On the next day, the medium was replaced with 80 μL of fresh medium. 20 μL of Cas9 RNP/ssDNA nanocarriers containing different molar ratios of RNP/ssDNA were added to each well resulting i n a series of concentrations of RNP (100, 75, 50, 25, 10, 5, 2.5, 1, 0.5, and 0.1 nM). Lipofectamine CRISPRMAX was tested at the same concentrations of RNP and ssDNA with the prepara-tion procedures as recommended by the manufacturer. The cells were incubat ed for 48 h. Afterwards, the cells were trypsinized and transferred to 24 -well plates, and incubated for another 72 h. Then, the cells were harvested and prepared for flow cytom-etry analysis. […]
Half maximal effective concentration (EC50) values were calculated by GraphPad prism 5. […] All other data were analyzed with GraphPad prism 5 and presented as arithmetic mean ± standard deviation (SD) of at least triplicates. […]

| Compound | logD [1] | PDI of Cas9 RNP nanocarriers [2] | hydrodynamic size (z-average) of Cas9 RNP nanocarriers [2] | zeta potential of Cas9 RNP nanocarriers [2] | eGFP knockout (HeLa eGFP/tub cells) |
| --- | --- | --- | --- | --- | --- |
| CCCCC/C=C\C/C=C\CCCCCCCC(=O)NCCCC[C@H](NC(=O)CCCCCCC/C=C\C/C=C\CCCCC)C(=O)NCCCC[C@H](NC(=O)[C@H](Cc1c[nH]cn1)NC(=O)CNCC(=O)NCCNCCNCCNCCNC(=O)[C@H](Cc1c[nH]cn1)NC(=O)[C@H](Cc1ccc(O)cc1)NC(=O)[C@H](Cc1ccc(O)cc1)NC(=O)[C@H](Cc1ccc(O)cc1)NC(=O)[C@@H](N)CCCCN=[N+]=[N-])C(=O)N[C@@H](Cc1c[nH]cn1)C(=O)NCCNCCNCCNCCNC(=O)CNCC(=O)N[C@@H](Cc1c[nH]cn1)C(=O)N[C@@H](Cc1ccc(O)cc1)C(=O)N[C@@H](Cc1ccc(O)cc1)C(=O)N[C@@H](Cc1ccc(O)cc1)C(=O)O [IDAtp1-H-LinA] | -1.51 | 0.19 ± 0.02 | 189.1 ± 4.2 nm | 13.7 ± 1.2 mV |  |
| CCCCC/C=C\C/C=C\CCCCCCCC(=O)NCCCC[C@H](NC(=O)CCCCCCC/C=C\C/C=C\CCCCC)C(=O)NCCCC[C@H](NC(=O)CNCC(=O)NCCNCCNCCNCCNC(=O)[C@H](Cc1ccc(O)cc1)NC(=O)[C@H](Cc1ccc(O)cc1)NC(=O)[C@H](Cc1ccc(O)cc1)NC(=O)[C@@H](N)CCCCN=[N+]=[N-])C(=O)NCCNCCNCCNCCNC(=O)CNCC(=O)N[C@@H](Cc1ccc(O)cc1)C(=O)N[C@@H](Cc1ccc(O)cc1)C(=O)N[C@@H](Cc1ccc(O)cc1)C(=O)O [IDAtp1-LinA] | -1.11 |  |  |  |  |
| CCCCC/C=C\C/C=C\CCCCCCCC(=O)NCCCC[C@H](NC(=O)CCCCCCC/C=C\C/C=C\CCCCC)C(=O)NCCCC[C@H](NC(=O)[C@H](Cc1c[nH]cn1)NC(=O)CCC(=O)NCCNCCNCCNCCNC(=O)[C@H](Cc1c[nH]cn1)NC(=O)[C@H](Cc1ccc(O)cc1)NC(=O)[C@H](Cc1ccc(O)cc1)NC(=O)[C@H](Cc1ccc(O)cc1)NC(=O)[C@@H](N)CCCCN=[N+]=[N-])C(=O)N[C@@H](Cc1c[nH]cn1)C(=O)NCCNCCNCCNCCNC(=O)CCC(=O)N[C@@H](Cc1c[nH]cn1)C(=O)N[C@@H](Cc1ccc(O)cc1)C(=O)N[C@@H](Cc1ccc(O)cc1)C(=O)N[C@@H](Cc1ccc(O)cc1)C(=O)O [Stp1-H-LinA] |  |  |  |  | ~80% |
| K(N3)-C-Y3-GEIPA2-K(K(OHSteA)2)-GEIPA2-Y3-C [GEIPA2-C-OHSteA, lipid-modified xenopeptide, X2-C-OHSteA architecture, artificial amino acid GEIPA] |  | 0.28 ± 0.02 | 179.8 ± 5.3 nm | 13.4 ± 2.1 mV |  |
| CCCCC/C=C\C/C=C\CCCCCCCC(=O)NCCCC[C@H](NC(=O)CCCCCCC/C=C\C/C=C\CCCCC)C(=O)NCCCC[C@H](NC(=O)CCCC(=O)NCCCNCCNCCCNC(=O)[C@H](Cc1ccc(O)cc1)NC(=O)[C@H](Cc1ccc(O)cc1)NC(=O)[C@H](Cc1ccc(O)cc1)NC(=O)[C@@H](N)CCCCN=[N+]=[N-])C(=O)NCCCNCCNCCCNC(=O)CCCC(=O)N[C@@H](Cc1ccc(O)cc1)C(=O)N[C@@H](Cc1ccc(O)cc1)C(=O)N[C@@H](Cc1ccc(O)cc1)C(=O)O [GEIPA1-LinA] | -0.33 |  |  |  |  |
